According to PMC3038857, “Using Nuclear Receptor Activity to Stratify Hepatocarcinogens” (PLoS ONE, 2011):
Like-named read-outs stand apart in the source and are kept apart here.

How the values were obtained:
Mouse Liver [1] = settings: mouse chronic study, liver; coded 6 / Inf, code not explained in table; ref ToxRefDB; cited from earlier work
Mouse Liver [2] = settings: ref ToxRefDB, cited from earlier work
Rat Liver [3] = settings: ref ToxRefDB, cited from earlier work
Rat Liver [4] = settings: ref ToxRefDB, cited from earlier work; remark: listed apart in the source
Rat Liver [5] = settings: ref ToxRefDB, cited from earlier work; remark: listed apart in the source
CYP2B6 = experiment: CLZD_CYP2B6: Change in expression of CYP2B6 (primary human hepatocytes); type: cell-based; settings: 24 hr
Protocol: (§1) This is a collection of multiplexed gene expression assays focused on Phase I and II xenobiotic metabolizing enzymes and transporters. Human primary cell cultures were treated with chemicals at 5 concentrations (0.004-40 [drawing 42] M) for 6, 24 and 48 hr. Concentration- and time-response profiles of chemicals were measured by the expression of key nuclear receptor target genes, activities of CYP1A enzymes (EROD), and cell morphology. Fourteen gene targets were monitored by quantitative nuclease protection assay including: six representative cytochrome P-450 genes, four hepatic transporters, three Phase II conjugating enzymes, and one endogenous metabolism gene involved in cholesterol synthesis. The target genes associated with nuclear receptor pathways are as follows: [drawing 43] and [drawing 44] with [drawing 45]; [drawing 46] , [drawing 47] , [drawing 48] , [drawing 49] , [drawing 50] and [drawing 51] with [drawing 52]; [drawing 53] , [drawing 54] , [drawing 55] and [drawing 56] with [drawing 57]; [drawing 58] with [drawing 59]; and [drawing 60] with [drawing 61] . Assays were run in primary human hepatocyte cultures by CellzDirect Invitrogen Inc. (Durham, NC), in collaboration with EPA.
(§2) Multiplexed Gene Expression in Human Primary Hepatocytes: This is a collection of multiplexed gene expression assays focused on Phase I and II metabolic enzymes and transporters. […] Fourteen gene targets were monitored by quantitative nuclease protection assay: six representative cytochrome P450 genes, four hepatic transporters, three Phase II conjugating enzymes, and one endogenous metabolism gene involved in cholesterol synthesis. Cells were exposed at 5 concentrations (0.004-40 µM) for 6, 24 or 48 hr. Gene targets are sentinels for five nuclear receptor signaling pathways: AhR, CAR, PXR, FXR, and PPARα. All gene are associated with nuclear receptor pathways: CYP1A1 and CYP1A2 with AHR; ABCB1, ABCG2, CYP2B6, CYP2C9, CYP2C19 and UGT1A1 with CAR; CYP3A4, GSTA2, SLCO1B1 and SULT2A1 with PXR; HMGCS2 with PPARA; and ABCB11 with FXR. […] Detailed description of the methods, data and analysis methods for this dataset will be presented in a separate publication.

PXR (NR1I2) [6] = target: T1, PXR (NR1I2) (Homo sapiens, UniProt O75469); experiment: NVS_NR_hPXR: Human PXR Fluormone PXR (SXR) green (cell-free HTS); type: binding
T1 sequence (O75469 1-434): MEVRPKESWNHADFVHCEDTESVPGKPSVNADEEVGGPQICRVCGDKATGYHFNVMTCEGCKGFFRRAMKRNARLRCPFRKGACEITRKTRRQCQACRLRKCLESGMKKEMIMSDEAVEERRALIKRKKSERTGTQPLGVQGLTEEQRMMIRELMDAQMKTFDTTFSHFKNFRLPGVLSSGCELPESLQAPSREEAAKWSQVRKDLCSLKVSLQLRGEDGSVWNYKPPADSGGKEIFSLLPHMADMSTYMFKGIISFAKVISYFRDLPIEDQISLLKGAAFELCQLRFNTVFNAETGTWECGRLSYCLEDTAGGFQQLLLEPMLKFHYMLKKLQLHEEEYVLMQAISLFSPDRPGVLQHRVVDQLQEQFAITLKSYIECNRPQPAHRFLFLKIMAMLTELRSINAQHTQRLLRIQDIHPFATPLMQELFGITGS
Description: These are a collection of biochemical assays measuring binding constants and enzyme inhibition values. Chemicals were initially screened at a single concentration in duplicate wells at a concentration of 10 [drawing 63] M for cytochrome P-450 assays and 25 [drawing 64] M for all others. […] These assays were run by Caliper Life Sciences (Hanover, MD) under contract to EPA. Short assay descriptions are available at: http://www.caliperls.com/products/contract-research/in-vitro/.
Cell-free HTS Assays: A collection of biochemical assays measuring binding constants and enzyme inhibition values. […] These assays were run by Caliper Life Sciences (Hanover, MD) under contract to EPA. Short assay descriptions are available at http://www.caliperls.com/products/contract-research/in-vitro/. Values for all endpoints were imported into GeneData Screener (Basel, Switzerland) and normalised to solvent controls from the same plate as the tested compounds and expressed as percent of neutral control. Concentration-response curves were fit in GeneData Screener (Basel, Switzerland) Condeseo module using the Hill equation and AC50 values were determined. […] Detailed description of the methods, data and analysis methods for this dataset are described in a separate publication.

PXR (NR1I2) [7] = target: T1, PXR (NR1I2); experiment: ATG_PXRE_CIS: Factorial reporter gene assay (HepG2); type: cell-based; set-up: endogenous in cells; host or cells: HepG2
Protocol: (§3) A multiple reporter transcription unit (MRTU) library consisting of 48 transcription factor binding sites was transfected into the HepG2 human liver hepatoma cell line. In addition to the cis-acting reporter genes (CIS), a modification of the approach was used to generate a trans-system (TRANS) with a mammalian one-hybrid assay consisting of an additional 25 MRTU library reporting the activity of nuclear receptor super-family members. […] These assays were performed by Attagene Inc. (Morrisville NC) under contract to EPA.
(§4) In addition to the cis-acting reporter genes (CIS), a modification of the approach was used to generate a trans-system (TRANS) with a mammalian one-hybrid assay consisting of an additional 25 MRTU library reporting the activity of nuclear receptor super-family members. […] Chemicals were then tested in the CIS and TRANS assays at seven concentrations starting at the MTC and followed by three-fold serial dilutions. These assays were performed by Attagene Inc. (Morrisville NC) under contract to EPA. Detailed description of the methods, data and analysis methods for this dataset will be presented in a separate publication.

CYP1A2 = experiment: CLZD_CYP1A2: Change in expression of CYP1A2 (primary human hepatocytes); type: cell-based; settings: 24 hr
Protocol: as §1, §2

CYP3A4 = experiment: CLZD_CYP3A4: Change in expression of CYP3A4 (primary human hepatocytes); type: cell-based; settings: 24 hr
Protocol: as §1, §2

CYP1A1 = experiment: CLZD_CYP1A1: Change in expression of CYP1A1 (primary human hepatocytes); type: cell-based; settings: 24 hr
Protocol: as §1, §2

[8] = target: T2, PPARG (peroxisome proliferator-activated receptor gamma) (Homo sapiens, UniProt P37231); experiment: ATG_PPARg_TRANS: Factorial reporter gene assay (HepG2); type: cell-based; settings: HepG2
T2 construct: expressed in transfected cells; host or cells: HepG2
T2 sequence (P37231 1-505): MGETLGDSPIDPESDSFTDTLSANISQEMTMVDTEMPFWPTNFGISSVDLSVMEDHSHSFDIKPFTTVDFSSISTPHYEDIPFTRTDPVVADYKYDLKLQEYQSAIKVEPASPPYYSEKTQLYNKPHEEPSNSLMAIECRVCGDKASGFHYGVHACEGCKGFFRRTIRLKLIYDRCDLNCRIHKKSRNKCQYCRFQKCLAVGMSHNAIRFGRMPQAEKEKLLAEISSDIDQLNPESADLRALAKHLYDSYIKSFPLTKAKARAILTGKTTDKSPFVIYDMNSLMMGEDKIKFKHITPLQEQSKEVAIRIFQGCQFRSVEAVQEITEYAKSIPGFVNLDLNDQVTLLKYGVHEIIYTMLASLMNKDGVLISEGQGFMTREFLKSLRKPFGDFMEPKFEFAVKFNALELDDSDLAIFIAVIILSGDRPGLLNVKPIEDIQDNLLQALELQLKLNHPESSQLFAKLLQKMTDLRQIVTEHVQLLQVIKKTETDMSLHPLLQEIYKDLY
Protocol: as §3, §4

[9] = mouse chronic study, liver, coded 6 / Inf, code not explained in table
[10] = rat chronic study, liver, coded 6 / 0, code not explained in table

SMILES	CHR_Mouse_Liver_2_PreneoplasticLesion (Mouse Liver [1])	CHR_Mouse_Liver_1_AnyLesion (Mouse Liver [2]; [9])	CHR_Rat_Liver_2_PreneoplasticLesion (Rat Liver [3]; [10])	CHR_Rat_Liver_3_NeoplasticLesion (Rat Liver [4]; [10])	CHR_Rat_Liver_1_AnyLesion (Rat Liver [5]; [10])	CLZD_CYP2B6_24 (CYP2B6)	ATG_PXRE_CIS (PXR (NR1I2) [7]; HepG2)	other results
CCCOC/C(=N\c1ccc(Cl)cc1C(F)(F)F)n1ccnc1 [chemical 315]	6	6	6	0	6			
COc1nc(C)nc(NC(=O)NS(=O)(=O)c2ccccc2OCCCl)n1 [chemical 307]	6	6	0	0	0			
N#CSCSC#N [row 206]						5.076	5.699	NVS_NR_hPXR (PXR (NR1I2) [6]): 5.324
COC(=O)c1c(C(F)F)nc(C(F)(F)F)c(C2=NCCS2)c1CC(C)C [chemical 297]	6	6	0	0	6			
COc1nc(C)nc(NC(=O)NS(=O)(=O)c2ccccc2CCC(F)(F)F)n1 [r268]								CHR_Mouse_Liver_1_AnyLesion (Mouse Liver [2]; chronic study, mouse liver): 6; CHR_Rat_Liver_2_PreneoplasticLesion (Rat Liver [3]; chronic study, rat liver): 0; CHR_Rat_Liver_3_NeoplasticLesion (Rat Liver [4]; chronic study, rat liver): 0; CHR_Rat_Liver_1_AnyLesion (Rat Liver [5]; chronic study, rat liver): 0; NVS_NR_hPXR (PXR (NR1I2) [6]): 4.469; ATG_PXRE_CIS (PXR (NR1I2) [7]; HepG2 reporter): 4.509
O=C(Nc1ccccc1)Nc1cnns1 [chemical 298]	6	6	0	0	0			
Cc1nc(N(C)C)nc(OC(=O)N(C)C)c1C [r247]						5.267	4.301	CLZD_CYP1A2_24 (CYP1A2): 5.15
COc1nc(NC(C)C)nc(NC(C)C)n1 [r255]						4.907	4.553	CHR_Mouse_Liver_1_AnyLesion (Mouse Liver [2]; mouse, chronic study): 6; CLZD_CYP3A4_24 (CYP3A4): 5.515; CHR_Rat_Liver_2_PreneoplasticLesion (Rat Liver [3]; rat, chronic study): 0; CLZD_CYP1A1_24 (CYP1A1): 5.078; CHR_Rat_Liver_3_NeoplasticLesion (Rat Liver [4]; rat, chronic study): 0; CHR_Rat_Liver_1_AnyLesion (Rat Liver [5]; rat, chronic study): 0
O=C(Nc1ccc([N+](=O)[O-])cc1Cl)c1cc(Cl)ccc1O [row 220]							6.367	ATG_PPARg_TRANS [8]: 6.252
